Data reported in patent US10175221B2, “Detection device to identify markers dissolved in a liquid by means of a measurement of resistivity variation, detection method and use of marker and detection device” (SICPA HOLDING SA, priority 2014, dated 2019).

Test: Solubility of the tested additives into diesel fuel

- Maximum evaluated concentration of marker soluble into diesel fuel (Table 1): <100 ppm
- Maximum evaluated concentration of marker soluble into diesel fuel (Table 2): <100 ppm
SMILES: CCCCN(CCO)CCO [N-butyldiethanolamine]
